Measured values: PubChem BioAssay (NCI)
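Step 1: Grow cells in 96-well plates. Step 2: Expose to compound for 48 hours at 5 concentrations. Step 3: Interpolate endpoints linearly; if unreached, use highest concentration. Abbreviation: GI50, concentration required for 50% inhibition of growth. TGI is the concentration that stops growth completely.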

Key:
Test in all cases: NCI-60 cell line screen, 48 h
K-562 leukemia = system: K-562 leukemia
SK-MEL-2 melanoma = system: SK-MEL-2 melanoma
SK-OV-3 ovarian = system: SK-OV-3 ovarian
NCI-H522 lung = system: NCI-H522 lung
IGROV1 ovarian = system: IGROV1 ovarian
NCI-H23 lung = system: NCI-H23 lung
A549 NSCLC = system: A549 NSCLC
A498 renal = system: A498 renal
SNB-19 CNS = system: SNB-19 CNS
COLO 205 colon = system: COLO 205 colon
SF-539 CNS = system: SF-539 CNS
RPMI-8226 leukemia = system: RPMI-8226 leukemia
SNB-75 CNS = system: SNB-75 CNS
MALME-3M melanoma = system: MALME-3M melanoma
MOLT-4 leukemia = system: MOLT-4 leukemia
SK-MEL-5 melanoma = system: SK-MEL-5 melanoma
MDA-MB-231 breast = system: MDA-MB-231 breast
HCT-116 colon = system: HCT-116 colon
T-47D breast = system: T-47D breast
HOP-92 NSCLC = system: HOP-92 NSCLC
HCC-2998 colon = system: HCC-2998 colon
UO-31 renal = system: UO-31 renal
UACC-62 melanoma = system: UACC-62 melanoma
CCRF-CEM leukemia = system: CCRF-CEM leukemia
NCI-H226 lung = system: NCI-H226 lung
SN12C renal = system: SN12C renal
MDA-MB-435 = system: MDA-MB-435
M14 melanoma = system: M14 melanoma
KM12 colon = system: KM12 colon
U251 CNS = system: U251 CNS
OVCAR-5 ovarian = system: OVCAR-5 ovarian
HOP-62 NSCLC = system: HOP-62 NSCLC
UACC-257 melanoma = system: UACC-257 melanoma
EKVX NSCLC = system: EKVX NSCLC
SF-268 CNS = system: SF-268 CNS
786-0 renal = system: 786-0 renal
HT29 colon = system: HT29 colon
ACHN renal = system: ACHN renal
SW-620 colon = system: SW-620 colon
MCF7 breast = system: MCF7 breast
NCI/ADR-RES ovarian = system: NCI/ADR-RES ovarian
BT-549 breast = system: BT-549 breast
HCT-15 colon = system: HCT-15 colon
CAKI-1 renal = system: CAKI-1 renal
OVCAR-8 ovarian = system: OVCAR-8 ovarian
TK-10 renal = system: TK-10 renal
NCI-H460 lung = system: NCI-H460 lung
SF-295 CNS = system: SF-295 CNS
LOX IMVI melanoma = system: LOX IMVI melanoma
OVCAR-4 ovarian = system: OVCAR-4 ovarian
SK-MEL-28 melanoma = system: SK-MEL-28 melanoma
PC-3 prostate = system: PC-3 prostate
HS 578T breast = system: HS 578T breast
RXF 393 renal = system: RXF 393 renal
SR leukemia = system: SR leukemia
DU-145 prostate = system: DU-145 prostate
HL-60(TB) leukemia = system: HL-60(TB) leukemia

Oc1cccc2ccc(-c3nnc(SCc4ccc(O)c5ncccc45)n3-c3ccccc3)nc12
GI50 (K-562 leukemia): 339 nM | TGI (K-562 leukemia): > 100 µM | GI50 (SK-MEL-2 melanoma): 540 nM | TGI (SK-MEL-2 melanoma): 5.71 µM | GI50 (SK-OV-3 ovarian): 529 nM | TGI (SK-OV-3 ovarian): 4.89 µM | GI50 (NCI-H522 lung): 456 nM | TGI (NCI-H522 lung): 11.9 µM | GI50 (IGROV1 ovarian): 735 nM | TGI (IGROV1 ovarian): 11.5 µM | GI50 (NCI-H23 lung): 533 nM | TGI (NCI-H23 lung): > 33.5 µM | GI50 (A549 NSCLC): 651 nM | TGI (A549 NSCLC): > 35.8 µM | GI50 (A498 renal): 1810 nM | TGI (A498 renal): > 31 µM | GI50 (SNB-19 CNS): 425 nM | TGI (SNB-19 CNS): > 44.1 µM | GI50 (COLO 205 colon): 4.36 µM | TGI (COLO 205 colon): > 100 µM | GI50 (SF-539 CNS): 430 nM | TGI (SF-539 CNS): 3.41 µM | GI50 (RPMI-8226 leukemia): 437 nM | TGI (RPMI-8226 leukemia): > 100 µM | GI50 (SNB-75 CNS): 279 nM | TGI (SNB-75 CNS): 4.42 µM | GI50 (MALME-3M melanoma): 599 nM | TGI (MALME-3M melanoma): 5 µM | GI50 (MOLT-4 leukemia): 459 nM | TGI (MOLT-4 leukemia): > 47.4 µM | GI50 (SK-MEL-5 melanoma): 579 nM | GI50 (MDA-MB-231 breast): 996 nM | TGI (MDA-MB-231 breast): 16.2 µM | GI50 (HCT-116 colon): 324 nM | TGI (HCT-116 colon): 9.38 µM | GI50 (T-47D breast): 380 nM | TGI (T-47D breast): 2570 nM | GI50 (HOP-92 NSCLC): 257 nM | TGI (HOP-92 NSCLC): 940 nM | GI50 (HCC-2998 colon): 612 nM | TGI (HCC-2998 colon): > 100 µM | GI50 (UO-31 renal): 297 nM | TGI (UO-31 renal): 1570 nM | GI50 (UACC-62 melanoma): 1060 nM | TGI (UACC-62 melanoma): 5.08 µM | GI50 (CCRF-CEM leukemia): 411 nM | TGI (CCRF-CEM leukemia): > 63.7 µM | GI50 (NCI-H226 lung): 3.04 µM | TGI (NCI-H226 lung): > 50.8 µM | GI50 (SN12C renal): 448 nM | TGI (SN12C renal): 18.3 µM | GI50 (MDA-MB-435): 441 nM | TGI (MDA-MB-435): > 73.8 µM | GI50 (M14 melanoma): 476 nM | TGI (M14 melanoma): 3.5 µM | GI50 (KM12 colon): 507 nM | TGI (KM12 colon): > 100 µM | GI50 (U251 CNS): 293 nM | TGI (U251 CNS): 7.6 µM | GI50 (OVCAR-5 ovarian): 3.43 µM | TGI (OVCAR-5 ovarian): > 81.1 µM | GI50 (HOP-62 NSCLC): 519 nM | TGI (HOP-62 NSCLC): 6.84 µM | GI50 (UACC-257 melanoma): 708 nM | TGI (UACC-257 melanoma): 6.62 µM | GI50 (EKVX NSCLC): 788 nM | TGI (EKVX NSCLC): > 26.4 µM | GI50 (SF-268 CNS): 471 nM | TGI (SF-268 CNS): > 73.9 µM | GI50 (786-0 renal): 759 nM | TGI (786-0 renal): 11.7 µM | GI50 (HT29 colon): 7.4 µM | TGI (HT29 colon): > 100 µM | GI50 (ACHN renal): 419 nM | TGI (ACHN renal): 2440 nM | GI50 (SW-620 colon): 403 nM | TGI (SW-620 colon): > 35.7 µM | GI50 (MCF7 breast): 325 nM | TGI (MCF7 breast): > 35.3 µM | GI50 (NCI/ADR-RES ovarian): 356 nM | TGI (NCI/ADR-RES ovarian): 6.33 µM | GI50 (BT-549 breast): 419 nM | TGI (BT-549 breast): > 21.7 µM | GI50 (HCT-15 colon): 323 nM | TGI (HCT-15 colon): > 37.1 µM | GI50 (CAKI-1 renal): 518 nM | TGI (CAKI-1 renal): 7.25 µM | GI50 (OVCAR-8 ovarian): 408 nM | TGI (OVCAR-8 ovarian): 11.9 µM | GI50 (TK-10 renal): 428 nM | TGI (TK-10 renal): 7.28 µM | GI50 (NCI-H460 lung): 311 nM | TGI (NCI-H460 lung): 1560 nM | GI50 (SF-295 CNS): 460 nM | TGI (SF-295 CNS): 11.9 µM | GI50 (LOX IMVI melanoma): 556 nM | TGI (LOX IMVI melanoma): 7.94 µM | GI50 (OVCAR-4 ovarian): 672 nM | TGI (OVCAR-4 ovarian): 9.21 µM | GI50 (SK-MEL-28 melanoma): 533 nM | TGI (SK-MEL-28 melanoma): > 100 µM | GI50 (PC-3 prostate): 391 nM | TGI (PC-3 prostate): > 37.8 µM | GI50 (HS 578T breast): 398 nM | TGI (HS 578T breast): 6.24 µM | GI50 (RXF 393 renal): 744 nM | TGI (RXF 393 renal): 19.1 µM | GI50 (SR leukemia): 385 nM | TGI (SR leukemia): > 50.8 µM | GI50 (DU-145 prostate): 580 nM | TGI (DU-145 prostate): > 100 µM | GI50 (HL-60(TB) leukemia): 369 nM
